# From PubChem BioAssay (NCI)
#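 Five concentrations, 48 hours, 96-well plates. GI50 = concentration required for 50% inhibition of growth. TGI marks complete inhibition of growth.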
# Legend:
# Assay in all cases: inhibition of tumour cell growth, NCI panel, 48 h
# SF-268 CNS = tested on: SF-268 CNS
# COLO 205 colon = tested on: COLO 205 colon
# KM12 colon = tested on: KM12 colon
# SF-539 CNS = tested on: SF-539 CNS
# EKVX NSCLC = tested on: EKVX NSCLC
# IGROV1 ovarian = tested on: IGROV1 ovarian
# M14 melanoma = tested on: M14 melanoma
# RXF 393 renal = tested on: RXF 393 renal
# LOX IMVI melanoma = tested on: LOX IMVI melanoma
# UACC-257 melanoma = tested on: UACC-257 melanoma
Compound,GI50 (SF-268 CNS) [µM],TGI (SF-268 CNS) [µM],GI50 (COLO 205 colon) [µM],TGI (COLO 205 colon) [µM],GI50 (KM12 colon) [µM],TGI (KM12 colon) [µM],GI50 (SF-539 CNS) [µM],TGI (SF-539 CNS) [µM],GI50 (EKVX NSCLC) [µM],TGI (EKVX NSCLC) [µM],GI50 (IGROV1 ovarian) [µM],TGI (IGROV1 ovarian) [µM],GI50 (M14 melanoma) [µM],TGI (M14 melanoma) [µM],GI50 (RXF 393 renal) [µM],TGI (RXF 393 renal) [µM],GI50 (LOX IMVI melanoma) [µM],TGI (LOX IMVI melanoma) [µM],GI50 (UACC-257 melanoma) [µM],TGI (UACC-257 melanoma) [µM]
O=C1Cc2cc(CCn3ccnc3)c(Cl)cc2N1,11.2,> 100,15.1,> 100,3.58,98.4,60,> 100,0.613,> 100,> 100,> 100,3.46,39.8,6.28,> 100,85.3,> 100,5.65,> 100
CCCNc1nc(N(C)O)nc(N(C)O)n1,1.39,> 56.6,2.23,32.2,3.09,> 100,2.51,> 54.4,2.04,> 100,2.13,14.6,2.05,> 29.4,2.96,> 62,1.31,> 100,4.13,> 46.2
CCOc1ccc(Cc2nccc3cc(OCC)c(OCC)cc23)cc1OCC,11.3,36.7,4.28,19,4.85,24.5,5.87,20.7,3.64,27.1,2.39,12.7,9.41,23.5,10.4,23.1,2.9,17,3.34,14.6
O=C(c1cc(=O)c2ccc(O)cc2o1)c1ccc(Cl)cc1Cl,,> 100,,> 38.3,,> 100,,> 25.4,,99.3,,> 100,,71.3,,98.4,,> 59.1,,> 71.9
CCCOc1ccc(/C(Cl)=C(\C=O)c2ccc(OC)c(OC)c2)cc1OCCC,,> 100,,14.6,,34.5,,55.1,,50.4,,> 100,,> 100,,25.3,,25.8,,> 100
COc1cc2c(cc1OC)C(CCc1ccc(Cl)cc1)N(C)CC2 (stereo not given),35,> 100,17.6,34.6,19.5,38.1,17.1,39,16.7,81,36.9,> 100,17.3,37.7,17.8,58.3,15,30.8,27.2,65.9
